Results published in patent US20090018163A1, “Substituted Heterocyclic Ethers and Their Use in CNS Disorders” (Bristol-Myers Squibb Company, priority 2007, published 2009).
Where two headings read alike, the source gives them in different places.

Assays:
NK-1 = target: T1, NK-1 (Homo sapiens, UniProt P25103); experiment: NK1 radioligand binding assay; settings: U373 membrane preparation, [125I]Substance P
T1 construct: 30 ul/well of a 2×U373 membrane preparation; endogenous in cells; host or cells: U373 cells (crude membrane preparation)
Procedure: (§1) NK-1 Binding assay. Crude membrane suspensions were prepared for the NK1 and SERT radioligand binding assays from U373 cells or recombinant HEK-293 cells expressing hSERT, respectively. Cells were harvested from T-175 flasks as follows. The medium is removed from the flasks and the cells rinsed with HBSS without Ca and without Mg. The cells are then incubated for 5-10 minutes in 10 mM Tris-Cl, pH 7.5, 5 mM EDTA before the cells are lifted with a combination of pipetting and scraping, as needed. To prepare membranes, the cell suspension is collected into centrifuge bottles and homogenized for 30 seconds with a Polytron homogenizer. The suspension is centrifuged for 30 min @ 32,000×g, 4° C., then the supernatant is decanted and the pellet resuspended and homogenized in 50 mM Tris-Cl, pH 7.5, 1 mM EDTA for 10 seconds. The suspension is then centrifuged again for 30 min @ 32,000×g, 4° C. The supernatant is decanted and the pellet resuspended in 50 mM Tris-Cl, pH 7.5, 1 mM EDTA and briefly homogenized. A Bradford assay (Bio-rad) is performed and the membrane preparation diluted to 2 mg/ml with 50 mM Tris-Cl, pH 7.5, 1 mM EDTA. Aliquots are prepared, and then frozen and stored at −80° C.
NK1 radioligand binding assay. Compounds are dissolved in 100% DMSO at a concentration 100× the desired highest assay concentration, serially diluted 1:3 in 100% DMSO, and 0.6 ul/well of each solution is dispensed to a Nunc polypropylene, round bottom, 384 well plate. 100% inhibition is defined with 0.6 ul/well of 1 mM L-733,060 (Sigma L-137) dissolved in DMSO. 30 ul/well of a 2×U373 membrane preparation (267 ug/ml in 100 mM Tris-Cl, pH 7.5, 6 mM MgCl2, 0.2% (v/v) Sigma mammalian protease inhibitor cocktail (Sigma P-8340), and 4 ug/ml chymostatin, Sigma C-7268) and 30 ul/well of a 2× radioligand solution (400 pM [^125I]Substance P (Perkin Elmer NEX-190) in 1% (w/v) BSA (Sigma A-2153), 0.1 mg/ml bacitracin, Sigma B-0125) are added to the well and the reaction incubated for 1 hour at room temperature. The contents of the assay plate are then transferred to a Millipore MultiscreenHTS GF/B filter plate which has been pretreated with 0.5% PEI for at least one hour. The plate is vacuum filtered and washed with 7 washes of 100 ul/well of 20 mM Tris-Cl, pH 7.5, 0.5% (w/v) BSA chilled to 4° C. The filtration and washing is completed in less than 90 s. The plates are air-dried overnight, 12 ul/well of MicroScint scintillation fluid added, and the plates counted in a Trilux.
(§2) Data analysis. The raw data are normalized to percent inhibition using control wells defining 0% (DMSO only) and 100% (selective inhibitor) inhibition which are run on each plate. Each plate is run in triplicate, and the concentration response curve thus generated is fit using the four-parameter dose response equation, Y=Bottom+(Top-Bottom)/(1+10̂((LogIC50−X)*HillSlope)) in order to determine the IC50 value for each compound. The radioligand concentration chosen for each assay corresponds to the Kd concentration determined through saturation binding analysis for each assay.

hSERT = target: T2, hSERT (Homo sapiens, UniProt P31645); experiment: SERT radioligand binding assay
T2 construct: expressed in transfected cells; host or cells: HEK-293 cells (crude membrane preparation)
Procedure: as §1
SERT radioligand binding assay. Compounds are dissolved in 100% DMSO at a concentration 100× the desired highest assay concentration, serially diluted 1:3 in 100% DMSO, and 0.4 ul/well of each solution is dispensed to a Nunc polypropylene, round bottom, 384 well plate. 100% inhibition is defined with 0.4 ul/well of 1 mM fluoxetine (Sigma F-132) dissolved in DMSO. 20 ul/well of a 2×HEK-hSERT membrane preparation (15 ug/ml in 50 mM Tris-Cl, pH 7.5, 120 mM NaCl, 5 mM KCl) and 20 ul/well of a 2× radioligand solution (520 pM [^125I]RTI-55 (Perkin-Elmer NEX-272) in 50 mM Tris-Cl, pH 7.5, 120 mM NaCl, 5 mM KCl) are added to each well and the reaction incubated for 1 hour at room temperature. The contents of the assay plate are then transferred to a Millipore MultiscreenHTS GF/B filter plate which has been pretreated with 0.5% PEI for at least one hour. The plate is vacuum filtered and washed with 7 washes of 100 ul/well of 50 mM Tris-Cl, pH 7.5, 120 mM NaCl, 5 mM KCl chilled to 4° C. The filtration and washing is completed in less than 90 s. The plates are air-dried overnight, 12 ul/well of MicroScint scintillation fluid added, and the plates counted in a Trilux.
as §2

[1] = HEK-hSERT membrane preparation, [125I]RTI-55, Table 1a, single enantiomers, read-out: SERT IC50
[2] = HEK-hSERT membrane preparation, [125I]RTI-55, Table 1, read-out: SERT IC50

T2 sequence (P31645 whole entry): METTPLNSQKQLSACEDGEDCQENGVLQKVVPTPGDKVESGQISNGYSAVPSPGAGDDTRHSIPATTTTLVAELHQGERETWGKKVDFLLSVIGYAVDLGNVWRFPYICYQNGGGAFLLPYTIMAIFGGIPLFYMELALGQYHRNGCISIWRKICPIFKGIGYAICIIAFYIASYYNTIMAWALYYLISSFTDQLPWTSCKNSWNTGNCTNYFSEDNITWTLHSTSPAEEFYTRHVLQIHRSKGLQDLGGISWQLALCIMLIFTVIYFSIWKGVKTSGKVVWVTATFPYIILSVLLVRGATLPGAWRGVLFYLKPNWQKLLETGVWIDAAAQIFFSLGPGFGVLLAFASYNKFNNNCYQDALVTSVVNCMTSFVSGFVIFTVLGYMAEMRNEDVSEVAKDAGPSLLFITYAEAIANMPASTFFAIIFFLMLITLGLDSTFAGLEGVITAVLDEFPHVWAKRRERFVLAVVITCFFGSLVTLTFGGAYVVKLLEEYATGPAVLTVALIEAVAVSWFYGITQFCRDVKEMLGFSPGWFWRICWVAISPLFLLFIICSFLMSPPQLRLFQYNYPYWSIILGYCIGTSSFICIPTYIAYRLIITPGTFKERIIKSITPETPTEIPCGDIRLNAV
T1 sequence (P25103 whole entry): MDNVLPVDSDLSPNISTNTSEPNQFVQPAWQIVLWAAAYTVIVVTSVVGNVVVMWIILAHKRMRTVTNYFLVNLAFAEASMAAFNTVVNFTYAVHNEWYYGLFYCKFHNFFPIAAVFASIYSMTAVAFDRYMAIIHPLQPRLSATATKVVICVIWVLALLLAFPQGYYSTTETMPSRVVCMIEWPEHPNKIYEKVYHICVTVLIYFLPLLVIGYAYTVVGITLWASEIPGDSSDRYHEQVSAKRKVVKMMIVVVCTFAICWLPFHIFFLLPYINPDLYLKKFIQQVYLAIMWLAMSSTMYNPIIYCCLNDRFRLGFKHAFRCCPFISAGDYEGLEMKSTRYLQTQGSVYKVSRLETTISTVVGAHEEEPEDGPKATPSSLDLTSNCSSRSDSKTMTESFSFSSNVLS

Row | IC50 (hSERT; [2]) | SMILES | IC50 (NK-1; Table 1a, single enantiomers) | IC50 (hSERT) | IC50 (hSERT; [1]) | IC50 (NK-1; Table 1)
1 | – | Cc1cc(C(C)OCC2(c3ccc(F)cc3)CCN(C)CC2)c2ncccc2c1 (single isomer, unassigned) [Example 75] | > 300 nM | 0.01 to 100 nM | – | –
2 | – | CC(OCC1(c2ccc(F)cc2)CCN(C)CC1)c1cc(Br)cc2cccnc12 (single isomer, unassigned) [Example 79] | 0.01 to 100 nM | – | 0.01 to 100 nM | –
3 | 0.01 to 100 nM | FC(F)(F)c1ccc2ccc(COCC3(c4ccccc4)CCNCC3)nc2c1 [Example 46, 2-(((4-phenylpiperidin-4-yl)methoxy)methyl)-7-(trifluoromethyl)quinoline] | – | – | – | > 300 nM
4 | 0.01 to 100 nM | CN(C)c1cc(COCC2(c3ccccc3)CCNCC2)nc2cc(C(F)(F)F)ccc12 [Example 18, N,N-dimethyl-2-(((4-phenylpiperidin-4-yl)methoxy)methyl)-7-(trifluoromethyl)quinolin-4-amine] | – | – | – | > 300 nM
5 | 0.01 to 100 nM | Cc1ccc2cc(COCC3(c4ccccc4)CCNCC3)ccc2n1 [Example 9] | – | – | – | > 300 nM
6 | 0.01 to 100 nM | Cc1ccc2nc(COCC3(c4ccccc4)CCNCC3)cc(C)c2c1 [Example 19, 4,6-dimethyl-2-(((4-phenylpiperidin-4-yl)methoxy)methyl)quinoline] | – | – | – | > 300 nM
7 | – | CC(OCC1(c2ccc(F)cc2)CCN(C)CC1)c1cc(Br)cc2cccnc12 (single isomer, unassigned) [Example 78] | 100 to 300 nM | 0.01 to 100 nM | – | –
8 | 0.01 to 100 nM | CC(OCC1(c2ccc(F)cc2)CCNCC1)c1cc(C(F)(F)F)cc2cccnc12 (stereo not drawn) [Example 33] | – | – | – | 0.01 to 100 nM
9 | – | CN1CCC(COCc2cc(C#N)cc3cccnc23)(c2ccc(F)cc2)CC1 [Example 44, 8-(((4-(4-fluorophenyl)-1-methylpiperidin-4-yl)methoxy)methyl)quinoline-6-carbonitrile] | – | 0.01 to 100 nM | – | > 300 nM
10 | – | CC(OCC1(c2ccc(F)cc2)CCN(C)CC1)c1cc(C(F)(F)F)cc2cccnc12 (single isomer, unassigned) [Example 70] | 0.01 to 100 nM | – | 0.01 to 100 nM | –
11 | – | Cc1cc(C(C)OCC2(c3ccc(F)cc3)CCN(C)CC2)c2ncccc2c1 (single isomer, unassigned) [Example 76] | 0.01 to 100 nM | – | 0.01 to 100 nM | –
12 | 0.01 to 100 nM | Cc1cc(COCC2(c3ccc(F)cc3)CCNCC2)c2ncccc2c1 [Example 29] | – | – | – | 0.01 to 100 nM
13 | – | Cc1cc(COCC2(c3ccccc3)CCN(C)CC2)nc2ccccc12 [Example 4] | – | 0.01 to 100 nM | – | 100 to 300 nM
14 | – | CC(OCC1(c2ccc(F)cc2)CCNCC1)c1cc(Br)cc2cccnc12 (single isomer, unassigned) [Example 77] | 0.01 to 100 nM | – | 0.01 to 100 nM | –
15 | – | CC(OCC1(c2ccccc2)CCN(C)CC1)c1cc(C(F)(F)F)cc2cccnc12 (single isomer, unassigned) [Example 74] | 0.01 to 100 nM | – | 0.01 to 100 nM | –
16 | 0.01 to 100 nM | Brc1cc(COCC2(c3ccccc3)CCNCC2)c2ncccc2c1 [Example 22] | – | – | – | 0.01 to 100 nM
17 | – | CN1CCC(COCc2cc(-c3ccc(C#N)cc3)cc3cccnc23)(c2ccccc2)CC1 [Example 25] | – | 0.01 to 100 nM | – | > 300 nM
18 | – | CC(OCC1(c2ccccc2)CCNCC1)c1cc(C(F)(F)F)cc2cccnc12 (single isomer, unassigned) [Example 71] | 0.01 to 100 nM | – | 0.01 to 100 nM | –
19 | 0.01 to 100 nM | Brc1cc(COCC2(c3ccccc3)CCNCC2)nc2ccccc12 [Example 13, 4-bromo-2-(((4-phenylpiperidin-4-yl)methoxy)methyl)quinoline] | – | – | – | 100 to 300 nM
20 | 0.01 to 100 nM | COc1ccc2nc(COCC3(c4ccccc4)CCNCC3)ccc2c1 [Example 11] | – | – | – | > 300 nM
21 | 0.01 to 100 nM | FC(F)(F)c1cccc2nc(COCC3(c4ccccc4)CCNCC3)ccc12 [Example 48, 2-(((4-phenylpiperidin-4-yl)methoxy)methyl)-5-(trifluoromethyl)quinoline] | – | – | – | > 300 nM
22 | 0.01 to 100 nM | N#Cc1cc(COCC2(c3ccccc3)CCNCC2)nc2ccccc12 [Example 14, 2-(((4-phenylpiperidin-4-yl)methoxy)methyl)quinoline-4-carbonitrile] | – | – | – | > 300 nM
23 | 0.01 to 100 nM | FC(F)(F)c1ccc2c(Cl)cc(COCC3(c4ccccc4)CCNCC3)nc2c1 [Example 17, 4-chloro-2-(((4-phenylpiperidin-4-yl)methoxy)methyl)-7-(trifluoromethyl)quinoline] | – | – | – | > 300 nM
24 | 0.01 to 100 nM | CNc1cc(COCC2(c3ccccc3)CCNCC2)nc2cccc(C(F)(F)F)c12 [Example 45, N-methyl-2-(((4-phenylpiperidin-4-yl)methoxy)methyl)-5-(trifluoromethyl)quinolin-4-amine] | – | – | – | > 300 nM
25 | 0.01 to 100 nM | c1ccc(C2(COCc3cccc4cccnc34)CCNCC2)cc1 [Example 31, 8-(((4-phenylpiperidin-4-yl)methoxy)methyl)quinoline] | – | – | – | > 300 nM

Row | SMILES | IC50 (hSERT; [2]) | IC50 (NK-1; Table 1a, single enantiomers) | IC50 (hSERT) | IC50 (hSERT; [1]) | IC50 (NK-1; Table 1)
26 | CC(OCC1(c2ccc(F)cc2F)CCN(C)CC1)c1cc(C(F)(F)F)cc2cccnc12 (stereo not drawn) [Example 38] | 0.01 to 100 nM | – | – | – | 0.01 to 100 nM
27 | Cc1cc(C(C)OCC2(c3ccc(F)cc3F)CCN(C)CC2)c2ncccc2c1 (stereo not drawn) [Example 43] | 0.01 to 100 nM | – | – | – | 0.01 to 100 nM
28 | CN1CCC(COCc2cc(C(F)(F)F)cc3cccnc23)(c2ccc(F)cc2)CC1 [Example 32, 8-(((4-(4-fluorophenyl)-1-methylpiperidin-4-yl)methoxy)methyl)-6-(trifluoromethyl)quinoline] | 0.01 to 100 nM | – | – | – | 0.01 to 100 nM
29 | Cc1cc(COCC2(c3ccccc3)CCN(C)CC2)c2ncccc2c1 [Example 26] | 0.01 to 100 nM | – | – | – | 0.01 to 100 nM
30 | CC(OCC1(c2ccccc2)CCN(C)CC1)c1cc(C(F)(F)F)cc2cccnc12 (stereo not drawn) [Example 36] | 0.01 to 100 nM | – | – | – | 0.01 to 100 nM
31 | CN1CCC(COCc2ccc3ccccc3n2)(c2ccccc2)CC1 [Example 6] | 0.01 to 100 nM | – | – | – | > 300 nM
32 | Cc1cc(C(C)OCC2(c3ccc(F)cc3)CCN(C)CC2)c2nc(N(C)C)ccc2c1 (stereo not drawn) [Example 51] | 100 to 300 nM | – | – | – | 0.01 to 100 nM
33 | CN1CCC(COCc2cc(Br)cc3cccnc23)(c2ccccc2)CC1 [Example 23] | 0.01 to 100 nM | – | – | – | 0.01 to 100 nM
34 | COc1ccc2cc(C)cc(C(C)OCC3(c4ccc(F)cc4)CCN(C)CC3)c2n1 (stereo not drawn) [Example 50] | 0.01 to 100 nM | – | – | – | 0.01 to 100 nM
35 | Cc1cc(C(C)OCC2(c3ccc(F)cc3)CCN(C)CC2)c2nc(Cl)ccc2c1 (stereo not drawn) [Example 49] | 0.01 to 100 nM | – | – | – | 0.01 to 100 nM
36 | Cc1cc(COCC2(c3ccc(F)cc3)CCN(C)CC2)c2ncccc2c1 [Example 30] | 0.01 to 100 nM | – | – | – | 0.01 to 100 nM
